What was measured:
DGKζ = target: T1, DGKζ (Homo sapiens, UniProt Q13574); test: In vitro DGKζ inhibition assay (ADP-Glo); assay type: biochemical; details: His-tagged human recombinant DGKζ 0.4 nM, 30 μM ATP, 20 μM DLG, 90 minute incubation
T1 construct: His; purchased Signal Chem D30-10H
Method in brief: (§1)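 His-tagged human DGKα (0.1 nM, 50 μM ATP) or DGKζ (0.4 nM, 30 μM ATP), each with 20 μM DLG lipid substrate, in Tris pH 7.5 buffer with Mg2+, Ca2+, CHAPS.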

DGKα = target: T2, DGKα (Homo sapiens, UniProt P23743); test: In vitro DGKα inhibition assay (ADP-Glo); assay type: biochemical; details: His-tagged human recombinant DGKα 0.1 nM, 50 μM ATP, 20 μM DLG, 90 minute incubation
T2 construct: His; purchased Signal Chem D21-10BH
T2 sequence (P23743 whole entry): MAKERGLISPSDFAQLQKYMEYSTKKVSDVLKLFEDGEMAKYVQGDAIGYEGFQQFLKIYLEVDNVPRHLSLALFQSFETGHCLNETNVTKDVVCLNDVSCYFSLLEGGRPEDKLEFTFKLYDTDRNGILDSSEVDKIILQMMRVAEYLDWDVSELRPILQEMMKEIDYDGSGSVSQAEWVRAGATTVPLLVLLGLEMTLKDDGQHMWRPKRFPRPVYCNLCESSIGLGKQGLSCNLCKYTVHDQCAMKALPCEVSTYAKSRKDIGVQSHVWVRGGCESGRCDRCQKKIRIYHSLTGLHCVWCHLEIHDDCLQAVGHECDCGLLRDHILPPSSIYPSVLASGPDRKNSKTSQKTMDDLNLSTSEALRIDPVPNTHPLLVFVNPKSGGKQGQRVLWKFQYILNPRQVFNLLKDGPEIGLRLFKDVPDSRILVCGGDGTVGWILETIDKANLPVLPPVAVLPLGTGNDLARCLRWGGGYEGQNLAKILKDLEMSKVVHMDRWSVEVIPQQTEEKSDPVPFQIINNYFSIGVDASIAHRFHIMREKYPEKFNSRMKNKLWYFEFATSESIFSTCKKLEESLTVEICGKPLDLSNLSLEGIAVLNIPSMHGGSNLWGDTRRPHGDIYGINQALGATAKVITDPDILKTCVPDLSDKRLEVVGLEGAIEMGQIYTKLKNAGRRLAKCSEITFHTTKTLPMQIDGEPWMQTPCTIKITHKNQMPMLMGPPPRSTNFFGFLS
Method in brief: as §1

T1 sequence (Q13574 whole entry): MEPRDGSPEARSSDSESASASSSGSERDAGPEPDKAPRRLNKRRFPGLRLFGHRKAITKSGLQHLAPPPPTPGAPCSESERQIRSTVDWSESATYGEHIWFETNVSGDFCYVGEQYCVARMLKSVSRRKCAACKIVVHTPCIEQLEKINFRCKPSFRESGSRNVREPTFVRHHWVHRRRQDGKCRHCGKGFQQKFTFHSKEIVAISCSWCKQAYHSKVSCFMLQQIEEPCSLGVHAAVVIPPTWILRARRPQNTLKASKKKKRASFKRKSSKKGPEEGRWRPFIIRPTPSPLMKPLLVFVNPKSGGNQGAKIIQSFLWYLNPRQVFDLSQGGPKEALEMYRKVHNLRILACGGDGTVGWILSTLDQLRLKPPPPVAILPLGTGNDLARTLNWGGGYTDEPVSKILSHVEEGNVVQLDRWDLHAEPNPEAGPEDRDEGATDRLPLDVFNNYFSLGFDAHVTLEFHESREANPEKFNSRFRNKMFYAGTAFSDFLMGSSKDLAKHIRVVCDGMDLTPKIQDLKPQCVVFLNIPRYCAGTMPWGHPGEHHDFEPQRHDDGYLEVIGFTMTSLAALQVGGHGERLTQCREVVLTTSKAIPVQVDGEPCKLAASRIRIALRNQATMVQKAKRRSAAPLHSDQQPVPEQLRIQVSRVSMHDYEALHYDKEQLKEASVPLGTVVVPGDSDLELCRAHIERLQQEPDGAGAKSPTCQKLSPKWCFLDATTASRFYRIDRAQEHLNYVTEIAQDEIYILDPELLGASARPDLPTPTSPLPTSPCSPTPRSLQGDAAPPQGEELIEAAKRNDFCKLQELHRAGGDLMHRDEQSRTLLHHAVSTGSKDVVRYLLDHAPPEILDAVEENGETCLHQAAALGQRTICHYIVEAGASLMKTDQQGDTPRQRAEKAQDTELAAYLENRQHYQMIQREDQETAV

| SMILES | IC50 (DGKζ) [nM] | IC50 (DGKα) [nM] |
| --- | --- | --- |
| Cc1nc2c(N3C[C@@H](C)N(Cc4ccc(C(F)(F)F)c(F)c4)C[C@@H]3C)nc3nncn3c2n1C[C@@H]1CCCO1 [Example 75, 4-((2S,5R)-4-(3-Fluoro-4-(trifluoromethyl)benzyl)-2,5-dimethylpiperazin-1-yl)-2-methyl-1-(((S)-tetrahydrofuran-2-yl)methyl)-1H-[1,2,4]triazolo[3,4-b]purine] | < 20 | < 20 |
| Cc1nc2c(N3C[C@@H](C)N(Cc4ccc(Cl)c(F)c4)C[C@@H]3C)nc3nncn3c2n1C[C@@H]1CCCO1 [Example 76, 4-((2S,5R)-4-(4-Chloro-3-fluorobenzyl)-2,5-dimethylpiperazin-1-yl)-2-methyl-1-(((S)-tetrahydrofuran-2-yl)methyl)-1H-[1,2,4]triazolo[3,4-b]purine] | < 20 | < 20 |
| C[C@@H]1CN(c2nc3nncn3c3c2ncn3C[C@@H]2CCCO2)[C@@H](C)CN1Cc1ccc(Cl)c(F)c1 [Example 77, 4-((2S,5R)-4-(4-Chloro-3-fluorobenzyl)-2,5-dimethylpiperazin-1-yl)-1-(((S)-tetrahydrofuran-2-yl)methyl)-1H-[1,2,4]triazolo[3,4-b]purine] | < 20 | < 20 |
| CC[C@@H]1CN(c2nc3nncn3c3c2nc(C)n3C[C@@H]2CCCO2)[C@@H](C)CN1C(c1ccc(Cl)cc1)C1CC(F)(F)C1 (stereo partly drawn) [Example 78, 4-((2S,5R)-4-((4-Chlorophenyl)(3,3-difluorocyclobutyl)methyl)-5-ethyl-2-methylpiperazin-1-yl)-2-methyl-1-(((S)-tetrahydrofuran-2-yl)methyl)-1H-[1,2,4]triazolo[3,4-b]purine] | < 20 | < 20 |
| Cc1nc2c(N3C[C@@H](C)N(C(c4cc(F)c(Cl)cc4F)C4CC(F)(F)C4)C[C@@H]3C)nc3nncn3c2n1C[C@@H]1CCCO1 (stereo partly drawn) [Example 79, 4-((2S,5R)-4-((4-Chloro-2,5-difluorophenyl)(3,3-difluorocyclobutyl)methyl)-2,5-dimethylpiperazin-1-yl)-2-methyl-1-(((S)-tetrahydrofuran-2-yl)methyl)-1H-[1,2,4]triazolo[3,4-b]purine] | < 20 | < 20 |
| Cc1nc2c(N3C[C@@H](C)N(C(c4ccc(Cl)c(F)c4F)C4CC(F)(F)C4)C[C@@H]3C)nc3nncn3c2n1C[C@@H]1CCCO1 (stereo partly drawn) [Example 80, 4-((2S,5R)-4-((4-Chloro-2,3-difluorophenyl)(3,3-difluorocyclobutyl)methyl)-2,5-dimethylpiperazin-1-yl)-2-methyl-1-(((S)-tetrahydrofuran-2-yl)methyl)-1H-[1,2,4]triazolo[3,4-b]purine] | < 20 | < 20 |
| Cc1nc2c(N3C[C@H]4CC[C@@H](C3)N4C(c3ccc(C(F)(F)F)cc3)C3CC(F)(F)C3)nc3nncn3c2n1C[C@@H]1CCCO1 (stereo partly drawn) [Example 81, 4-((1R,5S)-8-((3,3-Difluorocyclobutyl)(4-(trifluoromethyl)phenyl)methyl)-3,8-diazabicyclo[3.2.1]octan-3-yl)-2-methyl-1-(((S)-tetrahydrofuran-2-yl)methyl)-1H-[1,2,4]triazolo[3,4-b]purine] | < 20 | < 20 |
| Cc1nc2c(N3C[C@H]4CC[C@@H](C3)N4C(c3ccc(F)cc3)c3ccc(F)cc3)nc3nncn3c2n1C[C@@H]1CCCO1 [Example 82, 4-((1R,5S)-8-(Bis(4-fluorophenyl)methyl)-3,8-diazabicyclo[3.2.1]octan-3-yl)-2-methyl-1-(((S)-tetrahydrofuran-2-yl)methyl)-1H-[1,2,4]triazolo[3,4-b]purine] | < 20 | < 20 |
| CC(C)[C@@H](c1ccc2cc(C(F)(F)F)ccc2n1)N1C[C@H](C)N(c2nc3nncn3c3c2ncn3C[C@@H]2CCCO2)C[C@H]1C [Example 83, 4-((2S,5R)-2,5-Dimethyl-4-((S)-2-methyl-1-(6-(trifluoromethyl)quinolin-2-yl)propyl)piperazin-1-yl)-1-(((S)-tetrahydrofuran-2-yl)methyl)-1H-[1,2,4]triazolo[3,4-b]purine] | < 20 | 20 to 200 |
| CC(C)[C@H](c1ccc2cc(C(F)(F)F)ccc2n1)N1C[C@H](C)N(c2nc3nncn3c3c2ncn3C[C@@H]2CCCO2)C[C@H]1C [Example 84, 4-((2S,5R)-2,5-dimethyl-4-((R)-2-methyl-1-(6-(trifluoromethyl)quinolin-2-yl)propyl)piperazin-1-yl)-1-(((S)-tetrahydrofuran-2-yl)methyl)-1H-[1,2,4]triazolo[3,4-b]purine] | < 20 | < 20 |
| CC[C@@H](c1ccc(Cl)cc1)N1C[C@H](C)N(c2nc3nncn3c3c2nc(C)n3C[C@@H]2CCCO2)C[C@H]1C [Example 85, 4-((2S,5R)-4-((S)-1-(4-Chlorophenyl)propyl)-2,5-dimethylpiperazin-1-yl)-2-methyl-1-(((S)-tetrahydrofuran-2-yl)methyl)-1H-[1,2,4]triazolo[3,4-b]purine] | < 20 | < 20 |
| CC[C@H](c1ccc(Cl)cc1)N1C[C@H](C)N(c2nc3nncn3c3c2nc(C)n3C[C@@H]2CCCO2)C[C@H]1C [Example 86, 4-((2S,5R)-4-((R)-1-(4-chlorophenyl)propyl)-2,5-dimethylpiperazin-1-yl)-2-methyl-1-(((S)-tetrahydrofuran-2-yl)methyl)-1H-[1,2,4]triazolo[3,4-b]purine] | < 20 | < 20 |
| CC(c1ccc(Cl)c(F)c1)N1C[C@H](C)N(c2nc3nncn3c3c2ncn3C[C@@H]2CCCO2)C[C@H]1C (stereo partly drawn) [Example 88, 4-((2S,5R)-4-(1-(4-Chloro-3-fluorophenyl)ethyl)-2,5-dimethylpiperazin-1-yl)-1-(((S)-tetrahydrofuran-2-yl)methyl)-1H-[1,2,4]triazolo[3,4-b]purine] | < 20 | 20 to 200 |
| CC[C@@H](c1ccc(C(F)(F)F)cc1)N1C[C@H](C)N(c2nc3nncn3c3c2nc(C)n3C[C@@H]2CCCO2)C[C@H]1C [Example 89, 4-((2S,5R)-2,5-Dimethyl-4-((S)-1-(4-(trifluoromethyl)phenyl)propyl)piperazin-1-yl)-2-methyl-1-(((S)-tetrahydrofuran-2-yl)methyl)-1H-[1,2,4]triazolo[3,4-b]purine] | < 20 | < 20 |
| CC[C@H](c1ccc(C(F)(F)F)cc1)N1C[C@H](C)N(c2nc3nncn3c3c2nc(C)n3C[C@@H]2CCCO2)C[C@H]1C [Example 90, 4-((2S,5R)-2,5-dimethyl-4-((R)-1-(4-(trifluoromethyl)phenyl)propyl)piperazin-1-yl)-2-methyl-1-(((S)-tetrahydrofuran-2-yl)methyl)-1H-[1,2,4]triazolo[3,4-b]purine] | < 20 | < 20 |
